Test [1] concerns the target T1, TMED9 (Homo sapiens, UniProt Q9BVK6).
T1 construct: TMED9 abundance in P cells at escalating temperatures (as indicated) with or without treatment with BRD-4780; endogenous in cells; host or cells: P cells (intact cells treated, then heated and lysed)
T1 sequence (Q9BVK6 38-235): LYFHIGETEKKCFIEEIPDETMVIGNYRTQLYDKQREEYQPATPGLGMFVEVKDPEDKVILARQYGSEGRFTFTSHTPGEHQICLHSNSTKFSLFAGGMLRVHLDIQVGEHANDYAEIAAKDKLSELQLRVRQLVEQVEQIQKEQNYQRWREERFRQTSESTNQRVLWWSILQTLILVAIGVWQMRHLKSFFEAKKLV
The experiment in a line: TMED9 abundance (IF) in patient iPSC-derived kidney organoids. The test is classed as cell-based. The following applies: 10 μM, 72 hours. The method, then: Kidney organoids were immersion-fixed for 15 min in 4% PFA at 4° C. and subsequently frozen in OCT using dry ice and 100% ethanol. Six […] cryostat sections (CM1950, Leica) were thaw-mounted on microscope slides (Fisherbrand™ Superfrost™ Plus, Fisher Scientific) and kept in the cryostat (at −26° C.) for the duration of the sectioning process. Prior to immunostaining, organoid sections were rinsed in PBS for 5 min, incubated for 20 min at room temperature (RT) in PBS blocking solution containing 5% normal donkey serum (530-100ML, EMD Millipore) and 1.5% Tween® 20 (P1379, Sigma-Aldrich), then incubated overnight at 4° C. with primary antibodies diluted in the same blocking solution (1:500, monoclonal Armenian hamster anti-MUC1, Ab80952, Abcam; 1:500, monoclonal Fab-A-VSH anti-fsMUC1, AbD22655.4, Bio-Rad; 1:300 monoclonal Rat anti-E Cadherin [DECMA-1], ab11512, Abcam; 1:500 polyclonal Rabbit anti-Laminin, L9393-100UL, Sigma-Aldrich; 1:500 Na/K-ATPase, ab76020, Abcam; 1:300 Fluorescein labeled Lotus Tetragonolobus Lectin (LTL), FL-1321, Vector laboratories; 1:100, polyclonal, Rabbit anti-TMED9, 21620-1-AP, Proteintech). […]

Test [2] has as its system MUC1-fs. The experiment in a line: MUC1-fs immunofluorescence high-content imaging assay in P cells. Format: cell-based, human. The following applies: read-out: EC50 for removal of MUC1-fs (IF); P cells treated 48 hours.
Method: Cells grown on CellCarrier-96 or -384 well Ultra microplates (PerkinElmer) were fixed 10 min in PBS containing 4% PFA (Electron Microscopy Sciences), permeabilized 15 min in 0.5% Triton X100 (X100-100ML, Sigma-Aldrich), blocked for 1 hr in blocking reagent (100 mM Tris HCL pH8; 150 mM NaCL; 5 g/L Blocking Reagent [11096176001, Roche]) and treated for 1 hr with primary antibodies diluted in blocking reagent (1:500, monoclonal Fab-A-VSH anti-fsMUC1, AbD22655.2, Bio-Rad; 1:2000, monoclonal Mouse anti-MUC1 (CD227), 60137, Stemcell Technologies; 1:200, polyclonal, Mouse anti-GM130, ab169276, Abcam; 1:100, polyclonal, Rabbit anti-TMED9, 216201-AP, Proteintech; 1:800, polyclonal, Rabbit anti-SEC31A, 17913-1-AP, Proteintech; 1:400, monoclonal, Rabbit anti-EEA1 (C45B10), 3288S, Cell signaling technology; 1:100, polyclonal, Rabbit anti-ERGIC-53, E1031, Sigma-Aldrich; 1:400, monoclonal, Mouse anti-LAMP1 (D401S), 15665, Cell signaling technology; 1:1000, polyclonal, Rabbit anti-Calnexin, ab22595, Abcam; 1:2000, monoclonal, Rabbit anti-GM130 (D6B1) XP, 12480, Cell signaling technology; 1:200, monoclonal, Rabbit anti TNG46, ab50595, Abcam; 1:100, monoclonal, Rabbit anti-Rab7 (D95F2) XP, 9367, Cell signaling technology; 1:100, monoclonal, Rabbit anti-Rab11 (D4F5) XP, 5589, Cell signaling technology). Fixed, stained cells were washed three times in PBS and incubated for 1 hr with secondary antibodies in blocking solution (1:500, Alexa Fluor 488® Goat anti-Mouse IgG, A-11029, Thermo Fisher Scientific®; 1:500, Alexa Fluor 647® F(ab′)2-Goat anti-Rabbit IgG, A21246, Thermo Fisher Scientific®; 1:2000, Hoechst 33342, H3570, Thermo Fisher Scientific®), then washed three times in PBS and imaged.
Cell nuclei were first identified using Hoechst staining, and cell number was calculated. Cytoplasmic regions were then detected around each nucleus based on combined channels. The cells from the edge of the field were eliminated from the analysis. For the quantification of protein abundance, the total signal intensity value for each antibody was calculated separately in the cell cytoplasm and the average signal per cell was calculated for each well.
P cells were seeded 24 hr prior to compound treatment at a density of 12,000 cells/well in 384 well Cell Carrier Ultra plates (6057308, Perkin Elmer), pre-coated with 0.25 mg/mL Synthemax II SC Substrate (3535, Corning). Compounds of the repurposing library set (Corsello et al., 2017) were used at 5 doses (35, 3.5, 0.35, 0.035 and 0.0035 μM) for the primary screen and 10 doses (16, 5.6, 1.8, 0.6, 0.21, 0.07, 0.02, 0.008, 0.002 and 0.0008 μM) for the following screens. The compounds, in two replicates, were transferred from compound source plates to the cell plates using the HighRes Pin Tool. […] After 48 hr incubation, cells were fixed for 20 min in 4% PFA (Electron Microscopy Sciences) in PBS, washed twice, then permeabilized (10 min) with 0.5% Triton-X100 (X100-100ML, Sigma-Aldrich) in PBS and washed once more. Cells were blocked for 10 min at RT with Blocking solution (100 mM Tris HCL pH8; 150 mM NaCL; 5 g/L Blocking Reagent [11096176001, Roche]), then incubated 90 min at RT with one of the following primary antibodies in Roche Blocking solution: 1:500, monoclonal Fab-A-VSH anti-MUC1-fs, AbD22655.2, Bio-Rad; 1:2000, monoclonal mouse anti-MUC1 (214D4), 05-652-KC, Millipore; 1:1000, monoclonal, Rabbit anti-GM130 (D6B1) XP, 12480, Cell signaling technology. […]
In test [3] the test system is ER stress and the UPR. The experiment in a line: RNA-Seq pathway analysis of fs/+ mouse kidney lysates. Format: in vivo. The following applies: fs/+ mice, 50 mg/kg/day, 7 days. On the procedure: RNA was extracted from a sagittal section of a half-kidney. Kidney tissue was homogenized using tissue homogenizer (Tissue-Tearor™, BioSpec Products) in 1 mL of TRIzol™ Reagent (15596026, Thermo Fisher Scientific®). Following 5 min incubation, 0.2 mL chloroform (C2432-500ML, Sigma-Aldrich) was added, and samples were vigorously mixed for 30 sec, then centrifuged at 12,000×g at 4° C. for 15 min. The upper aqueous phase containing RNA was then vigorously mixed with 0.5 mL of isopropanol for 30 sec. After 10 min incubation at RT, the samples were centrifuged at 12,000×g at 4° C. for 10 min. The pellet was resuspended in 1 mL of 75% ethanol and centrifuged at 12,000×g 4° C. for 5 min. The RNA pellet was then air dried for 15 min, dissolved in 50 μL of Nuclease-Free Water (AM9937, Thermo Fisher Scientific®), treated with DNase I, Amplification Grade (18068015, Thermo Fisher Scientific®) following the manufacturer's protocol and assessed for yield and purity by NanoDrop™ 2000 (Thermo Fisher Scientific®).
Data processing and statistical analyses for all RNA-seq experiments were performed in RStudio—Version 1.0.153 as follows. First, bam files obtained from the Broad Institute sequencing platform were reverted to FASTQ files followed by alignment of paired end reads to the mm10 mouse or hg19 human reference genome using STAR. […]

Test [4] concerns UPR. In words: RNA-Seq analysis of UPR branch activation in P cells. The test is classed as cell-based, human. To be noted: BRD-4780 1 μM, THP 100 nM. The method, then:
For RNA-seq experiments, N and P cells were plated in 12-well plates at 200,000 cells/well. Subsequently, 1 μM of BRD-4780 or DMSO were applied for 24 hr followed by 12 hr exposure to 100 nM of thapsigargin (THP) or DMSO for control. At the end of the experiment, RNA was extracted from treated cells and sequencing was performed as described below.
UPR branch activation analysis is presented as boxplots. Each box of the boxplot consists of genes comprising an individual UPR branch (Adamson et al., 2016). The expression of each gene in the group is plotted as mean of the scaled expression profiles obtained from three replicates.

As a reminder, the EC50 is the concentration needed to bring the measured effect to its halfway point.

Turning to `CC(C)[C@@H]1[C@H]2CC[C@H](C2)[C@H]1N` (racemic) [BRD-4780, 2-endo-amino-3-exo-isopropylbicyclo[2.2.1]heptane], the “TMED9 abundance in patient organoids” value in test [1] is reported as “reduced TMED9 to levels comparable to cells in N1 organoids”. The EC50 in test [2] was determined as 143 nM. Also, in test [3], the “pathways changed in kidney bulk RNA-Seq” value was “downregulated pathways associated with ER stress and the UPR”. For the same compound, the UPR activation result in test [4] is reported as “significantly reduced UPR activation”.

The values are drawn from patent publication US12023308B2, “Agents for reversing toxic proteinopathies” (THE BROAD INSTITUTE, INC., priority 2019, dated 2024).
